Measurements as given in patent US20090163586A1, “Bis-(Sulfonylamino) Derivatives in Therapy 205” (AstraZeneca AB, priority 2007, published 2009).

biological target: T1, human mPGES-1 (Homo sapiens, UniProt O14684); test: Microsomal prostaglandin E synthase biochemical assay; settings: microsome preparation containing human mPGES-1; PGH2 10.8 μM, GSH 2.5 mM, pH 6.8; PGE2 by HTRF; average of at least n=2
T1 sequence (O14684 1-152): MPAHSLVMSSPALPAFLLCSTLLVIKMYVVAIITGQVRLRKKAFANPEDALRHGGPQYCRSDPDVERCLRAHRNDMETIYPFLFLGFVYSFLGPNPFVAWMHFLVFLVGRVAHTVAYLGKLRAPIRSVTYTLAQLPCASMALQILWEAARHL
Method in brief: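 Human mPGES-1 microsomes at 2 μg/mL were pre-incubated 15 min with compound (60 μM to 0.002 μM) in 50 mM potassium phosphate pH 6.8 with 2.5 mM GSH. The reaction was started with 10.8 μM PGH2 and stopped after 1 minute with acidic ferric chloride/citrate. PGE2 was quantified by HTRF; IC50 is the mean of at least 2 runs.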

SMILES | IC50
NS(=O)(=O)c1ccccc1NS(=O)(=O)c1ccc(C(F)(F)F)cc1 [Example 131, N-(2-Sulfamoylphenyl)-4-(trifluoromethyl)benzenesulfonamide] | 6.6 µM
NS(=O)(=O)c1ccccc1NS(=O)(=O)c1cccc(-c2cc(Cl)ccc2Cl)c1 [Example 132, 2-[[3-(2,5-Dichlorophenyl)phenyl]sulfonylamino]benzenesulfonamide] | 4.5 µM
NS(=O)(=O)c1ccccc1NS(=O)(=O)c1cccc(-c2cccc3c2oc2ccccc23)c1 [Example 133, 3-Dibenzofuran-4-yl-N-(2-sulfamoylphenyl)benzenesulfonamide] | 2.2 µM
NS(=O)(=O)c1ccccc1NS(=O)(=O)c1cccc(-c2ccc(C(F)(F)F)cc2)c1 [Example 134, 2-[[3-[4-(Trifluoromethyl)phenyl]phenyl]sulfonylamino]benzenesulfonamide] | 3.7 µM
COc1cccc(-c2cccc(S(=O)(=O)Nc3ccccc3S(N)(=O)=O)c2)c1 [Example 135, 3-(3-Methoxyphenyl)-N-(2-sulfamoylphenyl)benzenesulfonamide] | 8.3 µM
NS(=O)(=O)c1ccccc1NS(=O)(=O)c1cccc(-c2cc3ccccc3o2)c1 [Example 136, 3-Benzofuran-2-yl-N-(2-sulfamoylphenyl)benzenesulfonamide] | 3.8 µM
NS(=O)(=O)c1ccccc1NS(=O)(=O)c1cccc(-c2ccc3c(c2)CCO3)c1 [Example 137, 2-[[3-(2,3-Dihydrobenzofuran-5-yl)phenyl]sulfonylamino]benzenesulfonamide] | 2.1 µM
COc1ccc(-c2cccc(S(=O)(=O)Nc3ccccc3S(N)(=O)=O)c2)cn1 [Example 138, 3-(6-Methoxypyridin-3-yl)-N-(2-sulfamoylphenyl)benzenesulfonamide] | 0.57 µM
NS(=O)(=O)c1ccccc1NS(=O)(=O)c1cccc(-c2ccc(Cl)cc2Cl)c1 [Example 139, 2-[[3-(2,4-Dichlorophenyl)phenyl]sulfonylamino]benzenesulfonamide] | 1.8 µM
Cn1c(-c2cccc(S(=O)(=O)Nc3ccccc3S(N)(=O)=O)c2)cc2ccccc21 [Example 140, 3-(1-Methylindol-2-yl)-N-(2-sulfamoylphenyl)benzenesulfonamide] | 2.9 µM
NS(=O)(=O)c1ccccc1NS(=O)(=O)c1cccc(-c2cccc(C(F)(F)F)c2)c1 [Example 141, 2-[[3-[3-(Trifluoromethyl)phenyl]phenyl]sulfonylamino]benzenesulfonamide] | 3.1 µM
NS(=O)(=O)c1ccccc1NS(=O)(=O)c1ccc(-c2cc3ccccc3o2)cc1 [Example 142, 4-Benzofuran-2-yl-N-(2-sulfamoylphenyl)benzenesulfonamide] | 4.9 µM
NS(=O)(=O)c1ccccc1NS(=O)(=O)c1cccc(-c2ccc(F)cc2F)c1 [Example 143, 2-[[3-(2,4-Difluorophenyl)phenyl]sulfonylamino]benzenesulfonamide] | 1.1 µM
NS(=O)(=O)c1cc(Br)ccc1NS(=O)(=O)c1cccc(-c2ccc(Cl)c(Cl)c2)c1 [Example 144, 5-Bromo-2-[[3-(3,4-dichlorophenyl)phenyl]sulfonylamino]benzenesulfonamide] | 1.1 µM
NS(=O)(=O)c1cc(-c2ccccc2)ccc1NS(=O)(=O)c1cccc(-c2ccc(Cl)c(Cl)c2)c1 [Example 145, 2-[[3-(3,4-Dichlorophenyl)phenyl]sulfonylamino]-5-phenyl-benzenesulfonamide] | 4.1 µM
NS(=O)(=O)c1ccccc1NS(=O)(=O)c1cccc(F)c1F [Example 146, 2,3-Difluoro-N-(2-sulfamoylphenyl)benzenesulfonamide] | 4.7 µM
NS(=O)(=O)c1cc(F)ccc1NS(=O)(=O)c1cccc(F)c1F [Example 147, 2,3-Difluoro-N-(4-fluoro-2-sulfamoyl-phenyl)benzenesulfonamide] | 3.9 µM
NS(=O)(=O)c1ccccc1NS(=O)(=O)c1cccc(Cl)c1F [Example 148, 3-Chloro-2-fluoro-N-(2-sulfamoylphenyl)benzenesulfonamide] | 0.38 µM
NS(=O)(=O)c1ccccc1NS(=O)(=O)c1cccc(Cl)c1Cl [Example 149, 2,3-Dichloro-N-(2-sulfamoylphenyl)benzenesulfonamide] | 0.65 µM
Cc1ccc(NS(=O)(=O)c2cccc(-c3ccc(Cl)c(Cl)c3)c2)c(S(N)(=O)=O)c1 [Example 150, 2-[[3-(3,4-Dichlorophenyl)phenyl]sulfonylamino]-5-methyl-benzenesulfonamide] | 4.2 µM
NC(=O)c1ccc(NS(=O)(=O)c2cccc(-c3ccc(Cl)c(Cl)c3)c2)c(S(N)(=O)=O)c1 [Example 151, 4-[[3-(3,4-Dichlorophenyl)phenyl]sulfonylamino]-3-sulfamoyl-benzamide] | 3.7 µM

Other lines, results leading:

IC50 | SMILES
3.9 µM | Cc1ccc(NS(=O)(=O)c2cccc(-c3cccc(OC(F)(F)F)c3)c2)c(S(N)(=O)=O)c1 [Example 152, 5-Methyl-2-[[3-[3-(trifluoromethoxy)phenyl]phenyl]sulfonylamino]-benzenesulfonamide]
3.2 µM | NS(=O)(=O)c1cc(CO)ccc1NS(=O)(=O)c1cccc(Cl)c1Cl [Example 153, 2-(2,3-Dichloro-benzenesulfonylamino)-5-hydroxymethyl-benzenesulfonamide]
9.3 µM | Cc1ccc(NS(=O)(=O)c2cccc(Cl)c2Cl)c(S(N)(=O)=O)c1 [Example 154, 2-(2,3-Dichloro-benzenesulfonylamino)-5-methyl-benzenesulfonamide]
9.8 µM | NS(=O)(=O)c1cc(Oc2ccccc2)ccc1NS(=O)(=O)c1cccc(-c2ccc(Cl)c(Cl)c2)c1 [Example 155, 2-[[3-(3,4-Dichlorophenyl)phenyl]sulfonylamino]-5-phenoxy-benzenesulfonamide]
5.4 µM | NS(=O)(=O)c1cc(Oc2ccccc2)ccc1NS(=O)(=O)c1cccc(-c2cccc(OC(F)(F)F)c2)c1 [Example 156, 5-Phenoxy-2-[[3-[3-(trifluoromethoxy)phenyl]phenyl]sulfonylamino]-benzenesulfonamide]
1.1 µM | NS(=O)(=O)c1cc(O)ccc1NS(=O)(=O)c1cccc(Cl)c1Cl [Example 157, 2-(2,3-Dichloro-benzenesulfonylamino)-5-hydroxy-benzenesulfonamide]
8.7 µM | C[C@@](O)(C(=O)Nc1ccc(S(=O)(=O)Nc2ccccc2S(N)(=O)=O)cc1Cl)C(F)(F)F [Example 158, (2R)—N-[2-Chloro-4-[(2-sulfamoylphenyl)sulfamoyl]phenyl]-3,3,3-trifluoro-2-hydroxy-2-methyl-propanamide]
3.5 µM | NS(=O)(=O)c1ccccc1NS(=O)(=O)c1ccc(Cl)s1 [Example 159, 5-Chloro-N-(2-sulfamoylphenyl)thiophene-2-sulfonamide]
1.2 µM | NS(=O)(=O)c1ccccc1NS(=O)(=O)c1cc(Cl)c(Cl)s1 [Example 160, 4,5-Dichloro-N-(2-sulfamoylphenyl)thiophene-2-sulfonamide]
1.3 µM | NS(=O)(=O)c1ccccc1NS(=O)(=O)c1ccc(Cl)c(Cl)c1 [Example 161, 3,4-Dichloro-N-(2-sulfamoylphenyl)benzenesulfonamide]
5.7 µM | COc1cccc(-c2cccc(S(=O)(=O)Nc3ccccc3S(N)(=O)=O)c2)n1 [Example 162, 3-(6-Methoxypyridin-2-yl)-N-(2-sulfamoylphenyl)benzenesulfonamide]
0.46 µM | NS(=O)(=O)c1ccccc1NS(=O)(=O)c1ccc(OCc2cnc(Cl)s2)cc1 [Example 163, 2-[[4-[(2-Chlorol,3-thiazol-5-yl)methoxy]phenyl]sulfonylamino]benzenesulfonamide]
0.19 µM | COc1ncc(-c2cccc(S(=O)(=O)Nc3ccccc3S(N)(=O)=O)c2)cc1F [Example 164, 3-(5-Fluoro-6-methoxy-pyridin-3-yl)-N-(2-sulfamoylphenyl)benzenesulfonamide]
2.3 µM | COc1ncc(-c2cccc(S(=O)(=O)Nc3ccccc3S(N)(=O)=O)c2)cn1 [Example 165, 3-(2-Methoxypyrimidin-5-yl)-N-(2-sulfamoylphenyl)benzenesulfonamide]
4.8 µM | Cc1ccncc1-c1cccc(S(=O)(=O)Nc2ccccc2S(N)(=O)=O)c1 [Example 166, 3-(4-Methylpyridin-3-yl)-N-(2-sulfamoylphenyl)benzenesulfonamide]
3.8 µM | COc1ncccc1-c1cccc(S(=O)(=O)Nc2ccccc2S(N)(=O)=O)c1 [Example 167, 3-(2-Methoxypyridin-3-yl)-N-(2-sulfamoylphenyl)benzenesulfonamide]
0.63 µM | NS(=O)(=O)c1ccccc1NS(=O)(=O)c1cccc(-c2cncc(Cl)c2)c1 [Example 168, 2-[[3-(5-Chloropyridin-3-yl)phenyl]sulfonylamino]benzenesulfonamide]
0.022 µM | COc1ncc(-c2cccc(S(=O)(=O)Nc3ccccc3S(N)(=O)=O)c2)cc1Cl [Example 169, 3-(5-Chloro-6-methoxy-pyridin-3-yl)-N-(2-sulfamoylphenyl)benzenesulfonamide]
0.29 µM | CN(C)c1ccc(-c2cccc(S(=O)(=O)Nc3ccccc3S(N)(=O)=O)c2)cn1 [Example 170, 3-(6-Dimethylaminopyridin-3-yl)-N-(2-sulfamoylphenyl)benzenesulfonamide]
1.7 µM | NS(=O)(=O)c1ccccc1NS(=O)(=O)c1cccc(-c2cccc(CO)c2)c1 [Example 171, 2-[[3-[3-(Hydroxymethyl)phenyl]phenyl]sulfonylamino]benzenesulfonamide]
7.3 µM | NS(=O)(=O)c1ccccc1NS(=O)(=O)c1cccc(-c2ccc(CO)cc2)c1 [Example 172, 2-[[3-[4-(Hydroxymethyl)phenyl]phenyl]sulfonylamino]benzenesulfonamide]
